According to patent US6699681B2, “Endothelin converting enzymes and the amyloid β peptide” (Mayo Foundation for Medical Education and Research, priority 2000, dated 2004):

How the values were obtained:
[1] = system: H4 neuroglioma cells; assay: Extracellular Aβ after treatment of H4 cells with metalloprotease inhibitors; type: cell-based, human
Procedure: (§1) Human and guinea pig Aβ40 or Aβ42 was measured in plasma by sandwich ELISA as previously described (Suzuki et al., 1994, Science, 264:1336-1340) using the BAN-50/BA-27 or BAN-50/BC-05 antibody systems, respectively (Takeda; Japan). Hamster Aβ40- or Aβ42-derived from CHO cells was measured using the BNT-77/BA-27 or BNT-77/BC-05 antibody systems, respectively. Aβ concentration in samples was determined by comparison to synthetic Aβ40 or Aβ42 standards (Bachem, Switzerland). Data was obtained from triplicate wells.
(§2) In particular, the sandwich ELISA used herein was performed as follows: 96-well microtiter plates were coated overnight at 4° C. with 100 μl of a 5 μg/ml dilution of primary antibody in sodium carbonate coating buffer (SCCB; 0.1 M Na2CO3, pH 9.6). Plates were blocked overnight at 4° C. with 300 μl of BLOCKAGE Solution (PBS+1.0% BLOCKAGE (Snow Brand Milk Products, Japan), 0.05% NaN3, pH 7.4). Samples for analysis and synthetic Aβ standards (Bachem, Switzerland) were diluted in buffer EC (0.02 M NaH2PO4, 0.002 M EDTA, 0.4 M NaCl, 0.2% BSA, 0.05% CHAPS, 0.04% BLOCKAGE, 0.05% NaN3, pH 7.0) and allowed to incubate on the plates overnight at 4° C. Plates were washed twice with PBS (8 mM Na2HPO4, 1.5 mM KH2PO4, 139 mM NaCl, 2.7 mM KCl, pH 7.4) and 100 μl of secondary antibody directly coupled to HRP (EZ-LINK™ Plus Activated Peroxidase kit (contents of kit: peroxidase, 5 M sodium cyanoborohydride solution (NaBH3CN), quenching buffer (3 M ethanolamine, pH 9.0), BupH™ phosphate buffered saline, Buph™ carbonate-bicarbonate buffer), according to manufacturers directions; Pierce Chemical Co., Rockford, Ill.) was allowed to bind either 4 hrs at room temperature or overnight at 4° C. Plates were then washed twice with PBS containing 0.05% Tween 20 followed by two additional washes in PBS. Detection was performed using TMB (3,3′,5,5′-tetramethyl-benzidine) as an HRP substrate according to the manufacturer's specifications (Kirkegaard & Perry Laboratories (KPL), Gaithersburg, Md.) and the reaction stopped by the addition of 100 μl of 1N H3PO4. Plates were read at 450 nm in a SpectraMax Plus spectrophotometer (Molecular Devices; Sunnyvale, Calif.) and analyzed by SOFTmax® PRO software. Aβ40 or Aβ42 were quantitated by comparison with the values obtained for each synthetic Aβ standard from the same plate.
Cells were passaged into 6-well plates one day prior to treatment and grown to confluence. […] After treatment, the culture medium was harvested, spun at 14,000 xg, and the supernatant analyzed for Aβ40 or Aβ42 using sandwich ELISA and for secreted APP using Western blot. […] Bound antibody was detected by incubation with the appropriate HRP-linked secondary antibody (Amersham, Uppsala, Sweden) using ECL™ Western blotting reagents (Amersham) followed by exposure to X-ray film. […]

[2] = system: HUVEC cells; assay: Aβ accumulation in HUVEC cells treated with phosphoramidon; type: cell-based, human; conditions: high doses of phosphoramidon
Procedure: as §1
(§3) In particular, the sandwich ELISA used herein was performed as follows: 96-well microtiter plates were coated overnight at 4° C. with 100 μl of a 5 μg/ml dilution of primary antibody in sodium carbonate coating buffer (SCCB; 0.1 M Na2CO3, pH 9.6). […] Plates were read at 450 nm in a SpectraMax Plus spectrophotometer (Molecular Devices; Sunnyvale, Calif.) and analyzed by SOFTmax® PRO software. Aβ40 or Aβ42 were quantitated by comparison with the values obtained for each synthetic Aβ standard from the same plate.
Cells were passaged into 6-well plates one day prior to treatment and grown to confluence. […] After treatment, the culture medium was harvested, spun at 14,000 xg, and the supernatant analyzed for Aβ40 or Aβ42 using sandwich ELISA and for secreted APP using Western blot. […]

[3] = system: ECE-transfected CHO cells; assay: Aβ concentration in conditioned medium of ECE-1a- or ECE-1b-transfected CHO cells; type: cell-based, hamster
Procedure: as §1
as §2, with “Detection was performed using TMB (3,3′,5,5′-tetramethyl-benzidine) as an HRP substrate according to the manufacturer's specifications (Kirkegaard & Perry Laboratories (KPL), Gaithersburg, Md.) and the reaction stopped by the addition of 100 μl of 1N H3PO4.” left out, “plate. […]” for “plate.”

[4] = system: ECE-transfected CHO cells; assay: Removal of synthetic Aβ40 spiked into culture medium of ECE-transfected CHO cells; type: cell-based, hamster
Procedure: as §1, §3
To determine whether extracellular removal of Aβ accounted, at least in part, for the dramatic decrease in extracellular Aβ concentration in ECE-transfected cell lines, synthetic Aβ40 was spiked into the culture medium in the presence or absence of phosphoramidon and the amount of unhydrolyzed Aβ was determined at 6 or 24 hrs by sandwich ELISA. […]

[5] = system: neuronal cell lines; conditions: previously shown; cited from earlier work

CC(C)C[C@H](NP(=O)(O)O[C@@H]1O[C@@H](C)[C@H](O)[C@@H](O)[C@H]1O)C(=O)N[C@@H](Cc1c[nH]c2ccccc12)C(=O)O [phosphoramidon]
Aβ accumulation in parallel culture wells without synthetic Aβ ([1]; H4 cells, parallel to the spiking experiment): promoting Aβ accumulation
extracellular Aβ accumulation ([1]; H4 neuroglioma cells, thiorphan or captopril at concentrations greater than 1000-times the reported IC50 for the target enzymes): significant elevation
Aβ accumulation [2]: virtually undetectable levels of Aβ accumulation unless treated with high doses of phosphoramidon
reversal of the reduction in Aβ concentration in ECE-transfected cells ([3]; ECE-transfected CHO cells treated with phosphoramidon): completely reversed
phosphoramidon-induced accumulation of endogenous Aβ ([3]; parallel cultures of ECE-1a-transfected cells without synthetic Aβ, 24 hr): greater than 600%
increase in secretion of endogenous Aβ ([3]; phosphoramidon-treated ECE-transfected CHO cells, 6 hr): 1.5- to 2 fold
extracellular concentration of synthetic Aβ ([4]; 6 hr incubation, ECE-transfected and untransfected CHO cells, spiked synthetic Aβ40): not affected
ECE-1a-induced increase in Aβ removal ([4]; 24 hr, ECE-1a-transfected CHO cells treated with phosphoramidon): completely attenuated
increase in the concentration of Aβ40 and Aβ42 in the conditioned medium [5]: 2- to 3 fold
